From US20240158446A1, “CYCLIC COMPOUND HAVING SELECTIVE INHIBITORY ACTION ON KRAS OVER HRAS AND NRAS” (CHUGAI SEIYAKU KABUSHIKI KAISHA, priority 2021, published 2024)
Where a SMILES comes first, the peptide text is derived from it. Bridges are numbered along the chain shown (N, C = ends). [ ]: non-standard residue; d: D form. The star is where a group is joined. hPhe(3-Cl-4-CF3) = N[C@@H](CCc1ccc(C(F)(F)F)c(Cl)c1)C(=O)O; NPrPhe(4-CF3) = CCCN[C@@H](Cc1ccc(C(F)(F)F)cc1)C(=O)O; Pro(4-spirocPr) = O=C(O)[C@@H]1CC2(CC2)CN1; Abu(4,4,4-F3) = N[C@@H](CC(F)(F)F)C(=O)O; Morpholine(3S-CO) = O=C(O)[C@@H]1COCCN1; NMeGly(cPent) = CN[C@H](C(=O)O)C1CCCC1; Pro(4,4-F2) = O=C(O)[C@@H]1CC(F)(F)CN1; Gly(cPent) = N[C@H](C(=O)O)C1CCCC1; Hyp = O=C(O)[C@@H]1C[C@@H](O)CN1; NMeD = CN[C@@H](CC(=O)O)C(=O)O; NMeL = CN[C@@H](CC(C)C)C(=O)O; Morpholide = C1CN(*)CCO1; Ac5c = NC1(C(=O)O)CCCC1; Aze = O=C(O)[C@@H]1CCN1; Abu = CC[C@H](N)C(=O)O; Ac4c = NC1(C(=O)O)CCC1; Sar = CNCC(=O)O

Legend:
[1] = target: GDP-bound NRAS wild-type protein (Homo sapiens, UniProt P01111); test: Binding to NRAS by surface plasmon resonance (SPR), Single Cycle Kinetics; conditions: SPR, GDP-bound NRAS wild-type protein vs GDP-bound KRAS wild-type protein
Sequence of GDP-bound NRAS wild-type protein (P01111 whole entry): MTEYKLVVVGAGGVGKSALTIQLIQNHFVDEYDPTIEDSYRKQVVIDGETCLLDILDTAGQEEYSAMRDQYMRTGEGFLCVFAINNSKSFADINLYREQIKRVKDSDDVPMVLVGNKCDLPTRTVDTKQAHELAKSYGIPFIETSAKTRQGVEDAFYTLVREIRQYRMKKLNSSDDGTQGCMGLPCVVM

[2] = target: GDP-bound HRAS wild-type protein (Homo sapiens, UniProt P01112); test: Binding to HRAS by surface plasmon resonance (SPR), Single Cycle Kinetics; conditions: SPR, GDP-bound HRAS wild-type protein vs GDP-bound KRAS wild-type protein
Sequence of GDP-bound HRAS wild-type protein (P01112 whole entry): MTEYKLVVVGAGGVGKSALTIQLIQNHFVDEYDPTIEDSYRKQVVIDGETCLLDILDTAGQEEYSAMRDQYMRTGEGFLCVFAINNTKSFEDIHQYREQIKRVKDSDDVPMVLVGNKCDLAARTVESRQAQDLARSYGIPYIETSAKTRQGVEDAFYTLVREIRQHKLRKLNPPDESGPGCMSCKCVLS

[3] = test system: human lung cancer strain NCI-H441;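 note: cell proliferation inhibition after four days measured by CellTiter-Glo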

Compound	NRAS/KRAS (ratio of KD value for NRAS to KD value for KRAS) [1]	HRAS/KRAS (ratio of KD value for HRAS to KD value for KRAS) [2]	IC50 [3]
CCCN1C(=O)CN(C)C(=O)[C@@H]2CCN2C(=O)[C@H](CC)NC(=O)[C@H](CC(C)C)N(C)C(=O)C[C@@H](C(=O)N2CCOCC2)N(C)C(=O)[C@H](C2CCCC2)N(C)C(=O)C2(CCCC2)NC(=O)[C@@H]2CCCN2C(=O)[C@H](CCc2ccc(C(F)(F)F)c(Cl)c2)NC(=O)CN(C)C(=O)[C@@H]1Cc1ccc(C(F)(F)F)cc1 [PP0303] ([NMeL][Abu][Aze][Sar][NPrPhe(4-CF3)][Sar][hPhe(3-Cl-4-CF3)]P[Ac5c][NMeGly(cPent)][NMeD]-Morpholide; lactam N-11)	B (a compound having 3 or more and less than 10 is denoted as B)	B (a compound having 3 or more and less than 10 is denoted as B)	349 nM
CCCN1C(=O)CN(C)C(=O)[C@@H]2CCN2C(=O)[C@H](CC(F)(F)F)NC(=O)[C@H](CC(C)C)N(C)C(=O)C[C@@H](C(=O)N2CCOCC2)N(C)C(=O)[C@H](C2CCCC2)N(C)C(=O)C2(CCCC2)NC(=O)[C@@H]2CCCN2C(=O)[C@H](CCc2ccc(C(F)(F)F)c(Cl)c2)NC(=O)CN(C)C(=O)[C@@H]1Cc1ccc(C(F)(F)F)cc1 [PP0304] ([NMeL][Abu(4,4,4-F3)][Aze][Sar][NPrPhe(4-CF3)][Sar][hPhe(3-Cl-4-CF3)]P[Ac5c][NMeGly(cPent)][NMeD]-Morpholide; lactam N-11)	B (a compound having 3 or more and less than 10 is denoted as B)	B (a compound having 3 or more and less than 10 is denoted as B)	112 nM
CCCN1C(=O)CN(C)C(=O)[C@@H]2CCN2C(=O)[C@H](C2CCCC2)NC(=O)[C@H](CC(C)C)N(C)C(=O)C[C@@H](C(=O)N2CCOCC2)N(C)C(=O)[C@H](C2CCCC2)N(C)C(=O)C2(CCCC2)NC(=O)[C@@H]2CCCN2C(=O)[C@H](CCc2ccc(C(F)(F)F)c(Cl)c2)NC(=O)CN(C)C(=O)[C@@H]1Cc1ccc(C(F)(F)F)cc1 [PP0306] ([NMeL][Gly(cPent)][Aze][Sar][NPrPhe(4-CF3)][Sar][hPhe(3-Cl-4-CF3)]P[Ac5c][NMeGly(cPent)][NMeD]-Morpholide; lactam N-11)	B (a compound having 3 or more and less than 10 is denoted as B)	B (a compound having 3 or more and less than 10 is denoted as B)	142 nM
CCCN1C(=O)CN(C)C(=O)[C@@H]2CCN2C(=O)[C@H]([C@@H](C)CC)NC(=O)[C@H](CC(C)C)N(C)C(=O)C[C@@H](C(=O)N2CCOCC2)N(C)C(=O)[C@H](C2CCCC2)N(C)C(=O)C2(CCCC2)NC(=O)[C@@H]2CCN2C(=O)[C@H](CCc2ccc(C(F)(F)F)c(Cl)c2)NC(=O)CN(C)C(=O)[C@@H]1Cc1ccc(C(F)(F)F)cc1 [PP0307] ([NMeL]I[Aze][Sar][NPrPhe(4-CF3)][Sar][hPhe(3-Cl-4-CF3)][Aze][Ac5c][NMeGly(cPent)][NMeD]-Morpholide; lactam N-11)	B (a compound having 3 or more and less than 10 is denoted as B)	B (a compound having 3 or more and less than 10 is denoted as B)	205 nM
CCCN1C(=O)CN(C)C(=O)[C@@H]2CCN2C(=O)[C@H]([C@@H](C)CC)NC(=O)[C@H](CC(C)C)N(C)C(=O)C[C@@H](C(=O)N2CCOCC2)N(C)C(=O)[C@H](C2CCCC2)N(C)C(=O)C2(CCCC2)NC(=O)[C@@H]2CC3(CC3)CN2C(=O)[C@H](CCc2ccc(C(F)(F)F)c(Cl)c2)NC(=O)CN(C)C(=O)[C@@H]1Cc1ccc(C(F)(F)F)cc1 [PP0308] ([NMeL]I[Aze][Sar][NPrPhe(4-CF3)][Sar][hPhe(3-Cl-4-CF3)][Pro(4-spirocPr)][Ac5c][NMeGly(cPent)][NMeD]-Morpholide; lactam N-11)	B (a compound having 3 or more and less than 10 is denoted as B)	B (a compound having 3 or more and less than 10 is denoted as B)	56 nM
CCCN1C(=O)CN(C)C(=O)[C@@H]2CCN2C(=O)[C@H]([C@@H](C)CC)NC(=O)[C@H](CC(C)C)N(C)C(=O)C[C@@H](C(=O)N2CCOCC2)N(C)C(=O)[C@H](C2CCCC2)N(C)C(=O)C2(CCCC2)NC(=O)[C@@H]2C[C@@H](OC)CN2C(=O)[C@H](CCc2ccc(C(F)(F)F)c(Cl)c2)NC(=O)CN(C)C(=O)[C@@H]1Cc1ccc(C(F)(F)F)cc1 [PP0309] ([NMeL]I[Aze][Sar][NPrPhe(4-CF3)][Sar][hPhe(3-Cl-4-CF3)][Hyp](Me)[Ac5c][NMeGly(cPent)][NMeD]-Morpholide; lactam N-11)	B (a compound having 3 or more and less than 10 is denoted as B)	B (a compound having 3 or more and less than 10 is denoted as B)	11.7 nM
CCCN1C(=O)CN(C)C(=O)[C@@H]2CCN2C(=O)[C@H]([C@@H](C)CC)NC(=O)[C@H](CC(C)C)N(C)C(=O)C[C@@H](C(=O)N2CCOCC2)N(C)C(=O)[C@H](C2CCCC2)N(C)C(=O)C2(CCCC2)NC(=O)[C@@H]2COCCN2C(=O)[C@H](CCc2ccc(C(F)(F)F)c(Cl)c2)NC(=O)CN(C)C(=O)[C@@H]1Cc1ccc(C(F)(F)F)cc1 [PP0313] ([NMeL]I[Aze][Sar][NPrPhe(4-CF3)][Sar][hPhe(3-Cl-4-CF3)][Morpholine(3S-CO)][Ac5c][NMeGly(cPent)][NMeD]-Morpholide; lactam N-11)	B (a compound having 3 or more and less than 10 is denoted as B)	C (A compound having a KD ratio of 0.1 or more and less than 3 is denoted as C)	56.6 nM
CCCN1C(=O)CN(C)C(=O)[C@@H]2CCN2C(=O)[C@H]([C@@H](C)CC)NC(=O)[C@H](CC(C)C)N(C)C(=O)C[C@@H](C(=O)N2CCOCC2)NC(=O)[C@H](C2CCCC2)N(C)C(=O)C2(CCC2)NC(=O)[C@@H]2CCCN2C(=O)[C@H](CCc2ccc(C(F)(F)F)c(Cl)c2)NC(=O)CN(C)C(=O)[C@@H]1Cc1ccc(C(F)(F)F)cc1 [PP0338] ([NMeL]I[Aze][Sar][NPrPhe(4-CF3)][Sar][hPhe(3-Cl-4-CF3)]P[Ac4c][NMeGly(cPent)]D-Morpholide; lactam N-11)	B (a compound having 3 or more and less than 10 is denoted as B)	B (a compound having 3 or more and less than 10 is denoted as B)	296 nM
CCCN1C(=O)CN(C)C(=O)[C@@H]2CCN2C(=O)[C@H]([C@@H](C)CC)NC(=O)[C@H](CC(C)C)N(C)C(=O)C[C@@H](C(=O)N2CCOCC2)NC(=O)[C@H](C2CCCC2)N(C)C(=O)C2(CCC2)NC(=O)[C@@H]2CC(F)(F)CN2C(=O)[C@H](CCc2ccc(C(F)(F)F)c(Cl)c2)NC(=O)CN(C)C(=O)[C@@H]1Cc1ccc(C(F)(F)F)cc1 [PP0340] ([NMeL]I[Aze][Sar][NPrPhe(4-CF3)][Sar][hPhe(3-Cl-4-CF3)][Pro(4,4-F2)][Ac4c][NMeGly(cPent)]D-Morpholide; lactam N-11)	B (a compound having 3 or more and less than 10 is denoted as B)	B (a compound having 3 or more and less than 10 is denoted as B)	177 nM
CCCN1C(=O)CN(C)C(=O)[C@@H]2CCN2C(=O)[C@H]([C@@H](C)CC)NC(=O)[C@H](CC(C)C)N(C)C(=O)C[C@@H](C(=O)N2CCOCC2)NC(=O)[C@H](C2CCCC2)N(C)C(=O)C2(CCCC2)NC(=O)[C@@H]2C[C@@H](OCC)CN2C(=O)[C@H](CCc2ccc(C(F)(F)F)c(Cl)c2)NC(=O)CN(C)C(=O)[C@@H]1Cc1ccc(C(F)(F)F)cc1 [PP0341] ([NMeL]I[Aze][Sar][NPrPhe(4-CF3)][Sar][hPhe(3-Cl-4-CF3)][Hyp](Et)[Ac5c][NMeGly(cPent)]D-Morpholide; lactam N-11)	B (a compound having 3 or more and less than 10 is denoted as B)	B (a compound having 3 or more and less than 10 is denoted as B)	135 nM
CCCN1C(=O)CN(C)C(=O)[C@@H]2CCN2C(=O)[C@H]([C@@H](C)CC)NC(=O)[C@H](CC(C)C)N(C)C(=O)C[C@@H](C(=O)N(C)C)NC(=O)[C@H](C2CCCC2)N(C)C(=O)C2(CCC2)NC(=O)[C@@H]2CC(F)(F)CN2C(=O)[C@H](CCc2ccc(C(F)(F)F)c(Cl)c2)NC(=O)CN(C)C(=O)[C@@H]1Cc1ccc(C(F)(F)F)cc1 [PP0376] ([NMeL]I[Aze][Sar][NPrPhe(4-CF3)][Sar][hPhe(3-Cl-4-CF3)][Pro(4,4-F2)][Ac4c][NMeGly(cPent)]D-NMe2; lactam N-11)	B (a compound having 3 or more and less than 10 is denoted as B)	B (a compound having 3 or more and less than 10 is denoted as B)	114 nM
CCCN1C(=O)CN(C)C(=O)[C@@H]2CCN2C(=O)[C@H]([C@@H](C)CC)NC(=O)[C@H](CC(C)C)N(C)C(=O)C[C@@H](C(=O)N(C)C)NC(=O)[C@H](C2CCCC2)N(C)C(=O)C2(CCC2)NC(=O)[C@@H]2C[C@@H](OCC)CN2C(=O)[C@H](CCc2ccc(C(F)(F)F)c(Cl)c2)NC(=O)CN(C)C(=O)[C@@H]1Cc1ccc(C(F)(F)F)cc1 [PP0378] ([NMeL]I[Aze][Sar][NPrPhe(4-CF3)][Sar][hPhe(3-Cl-4-CF3)][Hyp](Et)[Ac4c][NMeGly(cPent)]D-NMe2; lactam N-11)	B (a compound having 3 or more and less than 10 is denoted as B)	B (a compound having 3 or more and less than 10 is denoted as B)	110 nM
